# Measured values from patent US10815244B2, “Isoidide derivatives and methods of making and using same” (Rutgers, the State University of New Jersey, priority 2015, dated 2020).
# Target: EGFR kinase (Homo sapiens (Human), UniProt P00533)
# Experiment: EGFR kinase activity, luminescent ATP/ADP detection assay
# Format: biochemical
# Conditions: purified EGFR kinase, 10 min incubation, luminescence ADP detection
# Procedure: Example RR: EGFR as a Drug Target Assay Conditions
# The IC50s of the compounds on EGFR activity were determined using the Luminescent ATP/ADP detection assay system. Briefly, the assay method measures ADP formed from EGFR kinase activity using luminescence derived from ATP-Luciferase detection system. Purified EGFR kinase was incubated with different concentrations of test compound in the kinase reaction buffer for 10 min. The reaction was stopped by depleting the unused ATP in the kinase reaction buffer using the depletion buffer for 40 min. The levels of ADP generated during the kinase reaction was detected by measuring the luminescence using the Luciferase system.
# Chain of EGFR kinase (P00533 25-1210): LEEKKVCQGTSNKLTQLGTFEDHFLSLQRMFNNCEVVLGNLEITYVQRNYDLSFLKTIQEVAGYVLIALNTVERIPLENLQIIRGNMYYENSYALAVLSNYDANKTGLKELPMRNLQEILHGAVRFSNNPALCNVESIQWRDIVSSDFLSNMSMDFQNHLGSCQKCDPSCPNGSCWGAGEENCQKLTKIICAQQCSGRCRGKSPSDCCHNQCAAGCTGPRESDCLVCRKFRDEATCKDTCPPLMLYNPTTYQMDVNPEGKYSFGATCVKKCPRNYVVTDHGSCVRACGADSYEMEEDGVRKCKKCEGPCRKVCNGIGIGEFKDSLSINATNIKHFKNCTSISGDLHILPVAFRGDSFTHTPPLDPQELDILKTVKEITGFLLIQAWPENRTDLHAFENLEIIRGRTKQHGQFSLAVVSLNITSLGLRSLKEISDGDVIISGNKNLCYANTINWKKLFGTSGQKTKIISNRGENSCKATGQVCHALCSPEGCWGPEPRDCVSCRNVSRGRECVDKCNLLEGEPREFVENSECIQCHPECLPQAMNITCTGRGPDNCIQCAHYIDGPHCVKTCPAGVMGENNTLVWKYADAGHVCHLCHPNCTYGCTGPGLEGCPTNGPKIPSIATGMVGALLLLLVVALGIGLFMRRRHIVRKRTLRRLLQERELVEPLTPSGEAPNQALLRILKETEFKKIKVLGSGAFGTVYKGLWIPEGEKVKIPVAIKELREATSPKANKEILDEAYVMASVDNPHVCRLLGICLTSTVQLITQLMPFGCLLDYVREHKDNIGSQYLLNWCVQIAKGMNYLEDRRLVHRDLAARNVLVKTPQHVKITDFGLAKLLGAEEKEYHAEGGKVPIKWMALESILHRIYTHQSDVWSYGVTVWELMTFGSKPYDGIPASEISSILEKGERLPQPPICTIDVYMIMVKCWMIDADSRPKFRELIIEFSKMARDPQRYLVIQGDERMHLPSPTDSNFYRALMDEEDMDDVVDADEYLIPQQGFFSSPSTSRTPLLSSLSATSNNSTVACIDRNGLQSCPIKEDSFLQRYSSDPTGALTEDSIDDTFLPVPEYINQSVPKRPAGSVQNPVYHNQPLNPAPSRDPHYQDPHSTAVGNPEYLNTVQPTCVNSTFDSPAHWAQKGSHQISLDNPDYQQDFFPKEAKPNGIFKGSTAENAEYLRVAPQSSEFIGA
IC50 [µM],EGFR IC50,Compound
> 0.5,–,"O=C(O[C@H]1CO[C@H]2[C@@H]1OC[C@@H]2Oc1ccc(Nc2ncnc3ccsc23)cc1Cl)c1ccccc1 [Example EE, [(3S,3aR,6S,6aR)-3-[2-chloro-4-(thieno[3,2-d]pyrimidin-4-ylamino)phenoxy]-2,3,3a,5,6,6a-hexahydrofuro[3,2-b]furan-6-yl] benzoate]"
–,Inactive,"CC(=O)O[C@H]1CO[C@H]2[C@@H]1OC[C@@H]2Oc1ccnc(NC2CCN(S(C)(=O)=O)CC2)n1 [Example FF, [(3S,3aR,6S,6aR)-3-[2-[(1-methylsulfonyl-4-piperidyl)amino]pyrimidin-4-yl]oxy-2,3,3a,5,6,6a-hexahydrofuro[3,2-b]furan-6-yl] acetate]"
–,Inactive,"CC(=O)O[C@H]1CO[C@H]2[C@@H]1OC[C@@H]2Oc1ccnc(NC2CCN(S(=O)(=O)c3ccc(C)cc3)CC2)n1 [Example GG, [(3S,3aR,6S,6aR)-3-[2-[(1-tolylsulfonyl-4-piperidyl)amino]pyrimidin-4-yl]oxy-2,3,3a,5,6,6a-hexahydrofuro[3,2-b]furan-6-yl] acetate]"
–,Inactive,"CC(=O)O[C@H]1CO[C@H]2[C@@H]1OC[C@@H]2Oc1ccnc(NC2CCN(C(=O)C(C)(C)C)CC2)n1 [Example HH, [(3S,3aR,6S,6aR)-3-[2-[[1-(2,2-dimethylpropanoyl)-4-piperidyl]amino]pyrimidin-4-yl]oxy-2,3,3a,5,6,6a-hexahydrofuro[3,2-b]furan-6-yl] acetate]"
–,Inactive,"CC(=O)O[C@H]1CO[C@H]2[C@@H]1OC[C@@H]2Oc1ccnc(NCc2ccc(F)cc2)n1 [Example II, [(3S,3aR,6S,6aR)-3-[2-[(4-fluorophenyl)methylamino]pyrimidin-4-yl]oxy-2,3,3a,5,6,6a-hexahydrofuro[3,2-b]furan-6-yl] acetate]"
–,Inactive,"CS(=O)(=O)N1CCC(Nc2nccc(O[C@H]3CO[C@H]4[C@@H]3OC[C@@H]4OC(=O)c3ccccc3)n2)CC1 [Example JJ, [(3S,3aR,6S,6aR)-3-[2-[(1-methylsulfonyl-4-piperidyl)amino]pyrimidin-4-yl]oxy-2,3,3a,5,6,6a-hexahydrofuro[3,2-b]furan-6-yl] benzoate]"
–,Inactive,"CSc1ncc(Br)c(C(=O)O[C@H]2CO[C@H]3[C@@H]2OC[C@@H]3O)n1 [Example KK, [(3S,3aR,6S,6aR)-3-hydroxy-2,3,3a,5,6,6a-hexahydrofuro[3,2-b]furan-6-yl] 5-bromo-2-methylsulfanyl-pyrimidine-4-carboxylate]"
> 0.1,–,"COc1cc2ncnc(Nc3ccc(O[C@H]4CO[C@H]5[C@@H]4OC[C@@H]5O)c(Cl)c3)c2cc1OC [Example T, (3S,3aR,6S,6aR)-6-[2-chloro-4-[(6,7-dimethoxyquinazolin-4-yl)amino]phenoxy]-2,3,3a,5,6,6a-hexahydrofuro[3,2-b]furan-3-ol]"
> 0.1,–,"O[C@H]1CO[C@H]2[C@@H]1OC[C@@H]2Oc1ccc(Nc2ncnc3ccsc23)cc1Cl [Example U, (3S,3aR,6S,6aR)-6-[2-chloro-4-(thieno[3,2-d]pyrimidin-4-ylamino)phenoxy]-2,3,3a,5,6,6a-hexahydrofuro[3,2-b]furan-3-ol]"
–,Inactive,"CSc1nccc(Nc2ccc(O[C@H]3CO[C@H]4[C@@H]3OC[C@@H]4O)c(Cl)c2)n1 [Example V, (3S,3aR,6S,6aR)-6-[2-chloro-4-[(2-methylsulfanylpyrimidin-4-yl)amino]phenoxy]-2,3,3a,5,6,6a-hexahydrofuro[3,2-b]furan-3-ol]"
–,Inactive,"O[C@H]1CO[C@H]2[C@@H]1OC[C@@H]2Oc1ccc(Nc2ccnc(Nc3ccc(O[C@H]4CO[C@H]5[C@@H]4OC[C@@H]5O)c(Cl)c3)n2)cc1Cl [Example W, (3S,3aR,6S,6aR)-6-[4-[[2-[4-[[(3S,3aR,6S,6aR)-3-hydroxy-2,3,3a,5,6,6a-hexahydrofuro[3,2-b]furan-6-yl]oxy]-3-chloro-anilino]pyrimidin-4-yl]amino]-2-chloro-phenoxy]-2,3,3a,5,6,6a-hexahydrofuro[3,2-b]furan-3-ol]"
> 0.5,–,"COc1cc2ncnc(Nc3ccc(O[C@H]4CO[C@H]5[C@@H]4OC[C@@H]5OC(C)=O)cc3)c2cc1OC [Example X, [(3S,3aR,6S,6aR)-3-[4-[(6,7-dimethoxyquinazolin-4-yl)amino]phenoxy]-2,3,3a,5,6,6a-hexahydrofuro[3,2-b]furan-6-yl] acetate]"
> 1,–,"CC(=O)O[C@H]1CO[C@H]2[C@@H]1OC[C@@H]2Oc1ccc(Nc2ncnc3ccsc23)cc1 [Example Y, [(3S,3aR,6S,6aR)-3-[4-(thieno[3,2-d]pyrimidin-4-ylamino)phenoxy]-2,3,3a,5,6,6a-hexahydrofuro[3,2-b]furan-6-yl] acetate]"
> 0.1,–,"COc1cc2ncnc(Nc3ccc(O[C@H]4CO[C@H]5[C@@H]4OC[C@@H]5OCc4ccccc4)cc3)c2cc1OC [Example Z, N-[4-[[(3S,3aR,6S,6aR)-3-benzyloxy-2,3,3a,5,6,6a-hexahydrofuro[3,2-b]furan-6-yl]oxy]phenyl]-6,7-dimethoxy-quinazolin-4-amine]"
